Experiments:
FADD−/− Jurkat cells = test: Necroptosis inhibition assay, TNF-α-induced necroptosis (CellTiter-Glo 2.0); type: cell-based, human; conditions: TNF-α 15 ng/mL; for Necroptosis inhibition assay (Rescue %) 1 μM: compound 1 μM; for Necroptosis inhibition assay (Rescue %) 10 μM: compound 10 μM
Summary of the method: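 Necroptosis was triggered by TNF-α at 15 ng/mL final following 30 minutes of compound exposure (0.1, 1 or 10 μM final). Incubation ran 20 to 24 hours at 37° C under 5% CO2; cell ATP was then quantified by luminescence.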

MLKL [1] = target: T1, MLKL (Homo sapiens, UniProt Q8NB16); test: MLKL degradation assay in HepG2 cell line (western blot); type: cell-based; set-up: endogenous in cells; host or cells: HepG2 or HaCaT; conditions: cell line not given; for Degradation assay (Degradation %) 1 μM: compound 1 μM; for Degradation assay (Degradation %) 10 μM: compound 10 μM
T1 sequence (Q8NB16 1-471): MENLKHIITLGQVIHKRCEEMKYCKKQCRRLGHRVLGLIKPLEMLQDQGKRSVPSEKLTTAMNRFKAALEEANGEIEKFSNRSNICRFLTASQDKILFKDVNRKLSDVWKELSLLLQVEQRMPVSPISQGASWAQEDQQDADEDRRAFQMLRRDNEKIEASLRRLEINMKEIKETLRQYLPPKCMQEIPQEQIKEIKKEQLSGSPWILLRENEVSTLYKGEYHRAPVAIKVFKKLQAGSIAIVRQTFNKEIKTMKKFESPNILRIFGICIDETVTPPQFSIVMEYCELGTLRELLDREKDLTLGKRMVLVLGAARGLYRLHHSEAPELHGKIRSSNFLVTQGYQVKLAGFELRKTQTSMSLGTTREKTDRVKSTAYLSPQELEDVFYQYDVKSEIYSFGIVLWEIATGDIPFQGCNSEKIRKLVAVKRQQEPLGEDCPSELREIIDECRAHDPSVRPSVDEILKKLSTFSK
Summary of the method: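 After treating HepG2 with test compounds (final 1 μM or 10 μM) for 20-24 h, we lysed cells, equalized protein by BCA and probed MLKL by overnight primary antibody at 4 °C followed by chemiluminescent detection.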

MLKL [2] = target: T1, MLKL; test: Measurement of binding affinity with MLKL receptor (competitive binding assay, Kd); set-up: made in house; host or cells: HEK 293 cell line (T7 phage in E. coli BL21-derived host is also described)
Summary of the method: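 Kd from an immobilized-ligand competition format: the DNA-tagged kinase from HEK 293 expression is eluted and quantified by qPCR. Compounds added from 111× DMSO stocks, final DMSO 0.9%.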

Structure (SMILES) | Degradation assay (Degradation %) 1 μM (MLKL [1]) | Degradation assay (Degradation %) 10 μM (MLKL [1]) | Kd (MLKL [2]) | Necroptosis inhibition assay (Rescue %) 1 μM (FADD−/− Jurkat cells) | Necroptosis inhibition assay (Rescue %) 10 μM (FADD−/− Jurkat cells)
Nc1ncc(-c2cnn(C3CCN(CCC4CCN(C(=O)C5CCN(c6ccc7c(c6)C(=O)N(C6CCC(=O)NC6=O)C7=O)CC5)CC4)CC3)c2)nc1C(=O)O[C@@H](C(=O)Nc1ccc(F)cc1)c1ccccc1 (stereo partly drawn) [TDH-197, (R)-2-((4-fluorophenyl)amino)-2-oxo-1-phenylethyl 3-amino-6-(1-(1-(2-(1-(1-(2-(2,6-dioxopiperidin-3-yl)-1,3-dioxoisoindolin-5-yl)piperidine-4-carbonyl)piperidin-4-yl)ethyl)piperidin-4-yl)-1H-pyrazol-4-yl)pyrazine-2-carboxylate] | 58.62% | 23.6% | 0.74 nM | 56.07% | 32.02%
Nc1ncc(-c2cnn(C3CCN(CCC4CCN(C(=O)COc5cccc6c5C(=O)N(C5CCC(=O)NC5=O)C6=O)CC4)CC3)c2)nc1C(=O)O[C@@H](C(=O)Nc1ccc(F)cc1)c1ccccc1 (stereo partly drawn) [TDH-200, (R)-2-((4-fluorophenyl)amino)-2-oxo-1-phenylethyl 3-amino-6-(1-(1-(2-(1-(2-((2-(2,6-dioxopiperidin-3-yl)-1,3-dioxoisoindolin-4-yl)oxy)acetyl)piperidin-4-yl)ethyl)piperidin-4-yl)-1H-pyrazol-4-yl)pyrazine-2-carboxylate] | 74.03% | 60.19% | 1 nM | 76.41% | 44.64%
Nc1ncc(-c2cnn(C3CCN(CCC4CCN(c5cccc6c5C(=O)N(C5CCC(=O)NC5=O)C6=O)CC4)CC3)c2)nc1C(=O)O[C@@H](C(=O)Nc1ccc(F)cc1)c1ccccc1 (stereo partly drawn) [TDH-202, (R)-2-((4-fluorophenyl)amino)-2-oxo-1-phenylethyl 3-amino-6-(1-(1-(2-(1-(2-(2,6-dioxopiperidin-3-yl)-1,3-dioxoisoindolin-4-yl)piperidin-4-yl)ethyl)piperidin-4-yl)-1H-pyrazol-4-yl)pyrazine-2-carboxylate] | 65.39% | 53.78% | 2.1 nM | 60.16% | 29.13%
Nc1ncc(-c2cnn(C3CCN(CC4CCN(C(=O)CC5CCN(c6cccc7c6C(=O)N(C6CCC(=O)NC6=O)C7=O)CC5)CC4)CC3)c2)nc1C(=O)O[C@@H](C(=O)Nc1ccc(F)cc1)c1ccccc1 (stereo partly drawn) [TDH-204, (R)-2-((4-fluorophenyl)amino)-2-oxo-1-phenylethyl 3-amino-6-(1-(1-((1-(2-(1-(2-(2,6-dioxopiperidin-3-yl)-1,3-dioxoisoindolin-4-yl)piperidin-4-yl)acetyl)piperidin-4-yl)methyl)piperidin-4-yl)-1H-pyrazol-4-yl)pyrazine-2-carboxylate] | 70% | 53.96% | 4.2 nM | 61.24% | 38.71%
Nc1ncc(-c2cnn(C3CCN(CC4CCN(C(=O)CC5CCN(c6ccc7c(c6)C(=O)N(C6CCC(=O)NC6=O)C7=O)CC5)CC4)CC3)c2)nc1C(=O)O[C@@H](C(=O)Nc1ccc(F)cc1)c1ccccc1 (stereo partly drawn) [TDH-205, (R)-2-((4-fluorophenyl)amino)-2-oxo-1-phenylethyl 3-amino-6-(1-(1-((1-(2-(1-(2-(2,6-dioxopiperidin-3-yl)-1,3-dioxoisoindolin-5-yl)piperidin-4-yl)acetyl)piperidin-4-yl)methyl)piperidin-4-yl)-1H-pyrazol-4-yl)pyrazine-2-carboxylate] | 57.56% | 36.05% | 6.7 nM | 59.88% | 41.34%

Second part, led by results:

Degradation assay (Degradation %) 1 μM (MLKL [1]) | Degradation assay (Degradation %) 10 μM (MLKL [1]) | Kd (MLKL [2]) | Structure (SMILES) | Necroptosis inhibition assay (Rescue %) 1 μM (FADD−/− Jurkat cells) | Necroptosis inhibition assay (Rescue %) 10 μM (FADD−/− Jurkat cells)
69.49% | 41.71% | 1.3 nM | Nc1ncc(-c2cnn(C3CCN(CCC4CCN(C(=O)CNc5cccc6c5C(=O)N(C5CCC(=O)NC5=O)C6=O)CC4)CC3)c2)nc1C(=O)O[C@@H](C(=O)Nc1ccc(F)cc1)c1ccccc1 (stereo partly drawn) [TDH-198, (R)-2-((4-fluorophenyl)amino)-2-oxo-1-phenylethyl 3-amino-6-(1-(1-(2-(1-((2-(2,6-dioxopiperidin-3-yl)-1,3-dioxoisoindolin-4-yl)glycyl)piperidin-4-yl)ethyl)piperidin-4-yl)-1H-pyrazol-4-yl)pyrazine-2-carboxylate] | 79.13% | 31.65%
61.77% | 38.35% | 1.7 nM | Nc1ncc(-c2cnn(C3CCN(CCC4CCN(C(=O)CNc5ccc6c(c5)C(=O)N(C5CCC(=O)NC5=O)C6=O)CC4)CC3)c2)nc1C(=O)O[C@@H](C(=O)Nc1ccc(F)cc1)c1ccccc1 (stereo partly drawn) [TDH-199, (R)-2-((4-fluorophenyl)amino)-2-oxo-1-phenylethyl 3-amino-6-(1-(1-(2-(1-((2-(2,6-dioxopiperidin-3-yl)-1,3-dioxoisoindolin-5-yl)glycyl)piperidin-4-yl)ethyl)piperidin-4-yl)-1H-pyrazol-4-yl)pyrazine-2-carboxylate] | 36.93% | 18%
85.96% | 82.98% | 1.3 nM | Nc1ncc(-c2cnn(C3CCN(CCC4CCN(C(=O)COc5ccc6c(c5)C(=O)N(C5CCC(=O)NC5=O)C6=O)CC4)CC3)c2)nc1C(=O)O[C@@H](C(=O)Nc1ccc(F)cc1)c1ccccc1 (stereo partly drawn) [TDH-201, (R)-2-((4-fluorophenyl)amino)-2-oxo-1-phenylethyl 3-amino-6-(1-(1-(2-(1-(2-((2-(2,6-dioxopiperidin-3-yl)-1,3-dioxoisoindolin-5-yl)oxy)acetyl)piperidin-4-yl)ethyl)piperidin-4-yl)-1H-pyrazol-4-yl)pyrazine-2-carboxylate] | 91.53% | 62.79%
61.41% | 34.74% | 3.2 nM | Nc1ncc(-c2cnn(C3CCN(CCC4CCN(c5ccc6c(c5)C(=O)N(C5CCC(=O)NC5=O)C6=O)CC4)CC3)c2)nc1C(=O)O[C@@H](C(=O)Nc1ccc(F)cc1)c1ccccc1 (stereo partly drawn) [TDH-203, (R)-2-((4-fluorophenyl)amino)-2-oxo-1-phenylethyl 3-amino-6-(1-(1-(2-(1-(2-(2,6-dioxopiperidin-3-yl)-1,3-dioxoisoindolin-5-yl)piperidin-4-yl)ethyl)piperidin-4-yl)-1H-pyrazol-4-yl)pyrazine-2-carboxylate] | 64.32% | 40.46%
17.98% | 24.18% | 210 nM | Nc1ncc(-c2cnn(C3CCN(CC4CCN(C(=O)CNc5ccc6c(c5)C(=O)N(C5CCC(=O)NC5=O)C6=O)CC4)CC3)c2)nc1C(=O)N[C@@H](C(=O)Nc1ccc(F)cc1)c1ccccc1 (stereo partly drawn) [TDH-207, 3-amino-6-(1-(1-((1-((2-(2,6-dioxopiperidin-3-yl)-1,3-dioxoisoindolin-5-yl)glycyl)piperidin-4-yl)methyl)piperidin-4-yl)-1H-pyrazol-4-yl)-N-((R)-2-((4-fluorophenyl)amino)-2-oxo-1-phenylethyl)pyrazine-2-carboxamide] | 28.69% | 32.45%

Reference: patent US20240252488A1 (KOREA RESEARCH INSTITUTE OF CHEMICAL TECHNOLOGY, priority 2020, published 2024)
